Results taken from patent US20220304926A1, “PHARMACEUTICAL COMPOSITION COMPRISING A COLLOIDAL DISPERSION AND METHODS AND USES THEREOF” (PREBONA AB, priority 2019, published 2022).

Key:
[1] = test system: Huh7^A2HCV^Rep and Huh7^A2 cell lines; experiment: MTT tetrazolium proliferation / cellular toxicity assay; type: cell-based
Protocol: Cells were seeded in flat bottom 96-well plates (Nuncleon™ Δ Surface, Denmark) at a density of 5 000 cells/well in 100 μL of culture medium without antibiotics (G418, puromycin and blasticidin). […] The final concentration of DMSO never exceeded 0.2%. AGSOL 1000-5-5, diluted in culture medium, was added at several concentrations: 0.01 ng/mL, 0.1 ng/mL, 1 ng/mL, 10 ng/mL, 0.1 μg/mL, 1 μg/mL, 10 μg/mL and 100 μg/mL. AGSOL 100-5-5 was added as described above, excluding the concentration 100 μg/mL. Medium without added cells and cells without any inhibitors constituted negative controls. […]
The 3-[4,5-dimethyltiazol-2-yl]-2,5-diphenyl tetrazolium bromide is cleaved by mitochondrial dehydrogenases of viable cells, leading to purple formazan in the form of insoluble crystals in aqueous solutions but dissolved in acidified isopropanol. The resulting purple solution is spectrophotometrically measured. […]
At time-points 24, 48, 72 and 96 hours post-addition of inhibitors, culture plates were removed from incubator into laminar flow hood. […] The background absorbance of multi-well plates was measured at 690 nm and was subtracted from the 570 nm values. Results were presented as the percentage of viability per condition (inhibitor/concentration) and the absorbance (A570 nm−A690 nm) per time-point for each inhibitor and per cell line. […]

[2] = test system: HCV subgenomic RNA replicon of genotype 1b in Huh7^A2HCV^Rep cells; experiment: Luciferase activity assay, HCV replicon in vitro replication; type: cell-based; settings: Hepatitis C virus, 500 nM
Description: A hepatoma cell line (Huh7-Lunet) designated Lunet-HlaA2-luc/neoET (Huh7^A2HCV^Rep) and Lunet-HlaA2 (Huh7^A2) were kindly provided by Dr. Volker Lohmann (UniversitätsKlinikum Heidelberg, Molekulare Virologie). The Lunet-HlaA2-luc/neoET expressed ectopically HLA-A2 and a selectable HCV subgenomic RNA replicon of genotype 1b harboring replication-enhancing mutations in NS3 and NS4 (Con1-ET). The replicon also expresses the selectable marker neomycin phosphotransferase, which inactivates the cytotoxic drug G418. The expression of non-structural proteins was driven by the encephalomyocarditis virus IRES (Robinson, M., Yang, H., Peng B. et al. 2010. Antimicrobial Agents and Chemotherapy. 54(8):3099-3106; Pasetto, A., Frelin, L. et al. 2012. J immunol. 189:4510-4519). The replicon cells expressed the firefly luciferase gene fused to the selectable marker by ubiquitin. As control, the parenteral cell line, designated Lunet-HlaA2, was used.
Cells were seeded in flat bottom 96-well plates (Nuncleon™ Δ Surface, Denmark) at a density of 5 000 cells/well in 100 μL of culture medium without antibiotics (G418, puromycin and blasticidin). […] The final concentration of DMSO never exceeded 0.2%. AGSOL 1000-5-5, diluted in culture medium, was added at several concentrations: 0.01 ng/mL, 0.1 ng/mL, 1 ng/mL, 10 ng/mL, 0.1 μg/mL, 1 μg/mL, 10 μg/mL and 100 μg/mL. AGSOL 100-5-5 was added as described above, excluding the concentration 100 μg/mL. Medium without added cells and cells without any inhibitors constituted negative controls. Each concentration of drug was tested in 5 unique wells and the same protocol was carried out for Huh7^A2HCV^Rep and Huh7^A2 cell lines. Inhibitors were refreshed daily. The experimental assays were performed three times with similar results.
The Lunet-HlaA2 (Huh7^A2) cell line was only used as negative control in this assay. The firefly luciferase gene expressed by the replicon cells catalyses the mono-oxygenation of beetle luciferin according to the reaction described in the following reaction scheme:
At time-points 24, 48, 72 and 96 hours post-addition of inhibitors, culture plates were removed from incubator into laminar flow hood and an equal volume of Luciferase assay reagent to that of the culture medium in each well was added. Three minutes were allowed for complete cell lysis, and subsequently the luminescence was measured. Absorbance and luminescence were read by Infinite 200 PRO reader (Tecan Group Ltd, Maennedorf, Switzerland).
The HCV in vitro replication was quantified by measuring the reporter gene expression. The Huh7^A2HCV^Rep cell line expresses both the HCV replicon and the firefly luciferase gene. The measurement of luciferase correlates with the HCV replication activity.

Structure (SMILES): CC(C)(C)NC(=O)N[C@H](C(=O)N1C[C@H]2[C@@H]([C@H]1C(=O)NC(CC1CCC1)C(=O)C(N)=O)C2(C)C)C(C)(C)C (stereo partly drawn) [Boceprevir]
- cellular viability compared to cells grown without inhibitor ([1]; Boceprevir 100-500 nM, throughout the experiments (24-96 hpa), both cell lines): ≥ 75%
- cellular toxicity by kinetic analysis of absorbance values ([1]; Boceprevir, 24, 48, 72 and 96 hours post-addition): did not cause any markedly cellular toxicity
- inhibition at 0.5 µM ([2]; 24 hpa): ~85%
- inhibition at 0.5 µM ([2]; 48 hpa): ~90%
- inhibition at 0.5 µM ([2]; 72 hpa): ~90%
- inhibition at 0.5 µM ([2]; 96 hpa): ~90%
